Reference: publication PMC6321172, “Analysis of Vipadenant and Its In Vitro and In Vivo Metabolites via Liquid Chromatography-Quadrupole-Time-of-Flight Mass Spectrometry” (Pharmaceutics, 2018)
Where two headings read alike, the source gives them in different places.

Experiments:
[1] = Stock solution stability assessment (1 mg/mL in DMSO); assay type: physicochemical; conditions: for Mean Accuracy (%), stock storage stability: DMSO stock, 6 months, −80°C
Description: (§1) Each stability assessment was carried out in blank rat plasma. Three levels of QC (low, medium and high) were used in the short-term, freeze-thaw, long-term and post-preparative stability assessments and two levels of QC (medium & high) were used in stock solution stability assessment. The short term stability assessment was carried out at room temperature (RT) over 4 h and the results obtained were compared with the control (0 min). In the long-term stability assessment, the samples kept frozen at −80 °C for 2 weeks were compared with the freshly prepared control group samples. The freeze-thaw stability was evaluated over three cycles of freezing (−80 °C) and thawing (RT). The post-preparative stability was assessed for the QC samples kept in an auto-sampler (10 °C) for 24 h. As a separate stock-solution stability assessment, the vipadenant stock-solution prepared at 1 mg/mL (DMSO) was stored at −80 °C for 6 months and its stability was evaluated. The stability test results were evaluated by confirming that the mean accuracy (%) of the nominal value which should be within ± 25% range.

[2] = Preliminary stability assessment in rat plasma QC samples; assay type: physicochemical; conditions: for Mean Accuracy (%), post-preparative stability: processed rat plasma samples, 24 h, 4 °C; for Mean Accuracy (%), long-term stability: 2 weeks; for Mean Accuracy (%), long-term stability / Mean Accuracy (%), freeze-thaw stability: −80 °C; for Mean Accuracy (%), freeze-thaw stability: 3 cycles; for Mean Accuracy (%), short term stability: 4 h, RT
Description: as §1, with “The post-preparative stability was assessed for the QC samples kept in an auto-sampler (10 °C) for 24 h.” left out

[3] = Rat pharmacokinetic study after IV or PO administration; assay type: in vivo; conditions: for Cmax: read-out: C0 or Cmax; for Vd: read-out: Vss
Description: Twenty microliters of the rat pharmacokinetics samples were placed in cluster tubes. As a make-up solution, 4 μL of DMSO was added to the cluster tube and 100 μL of ACN containing ISTD (verapamil) was also added. The mixture was capped, gently shaken for approximately 1 min and was then centrifuged for 5 min at 12,000 rpm (4 °C). Following the centrifugation, 50 μL supernatant was transferred to a clean test tube and was diluted with 100 μL of distilled water. The resulting mixture was then transferred to an LC-vial and 10 μL was injected to the LC-QTOF-MS. The same procedure was also applied to the STD samples and QC samples.
Data acquisition and LC-QTOF-MS operation was conducted using Analyst® TF Version 1.6 (Sciex). MultiQuant® Version 2.1.1 (Sciex) was used for the peak integration for vipadenant quantification. PeakView® Version 2.2 and MetabolitePilot™ Version 2.0.2 were used for the structural elucidation of vipadenant metabolites. […] Pharmacokinetic parameters were calculated in a non-compartmental analysis using WinNonlin® version 8.0.0 (Certara, Princeton, NJ, USA).
Male sprague-dawley rats (300 ± 10 g) were purchased from the Samtako Biokorea Co. (Gyeonggi, Korea) and housed in groups of 3~4 per cage and given standard rodent chow. […] Rats were distributed into four different groups (three rats per group; 1 & 2 mg/kg IV group and 2 & 5 mg/kg PO group). Blood was drawn into the heparinized tubes after IV (1 and 2 mg/kg) or PO (2 and 5 mg/kg) administration and was immediately centrifuged at 10,000 rpm for 5 min. […] The supernatant of the centrifuged samples (plasma) were transferred to the clean tubes and stored at −20 °C until analysis.
During the sample preparation of the PK samples, QC samples were included for the assurance of the analytical run.

[4] = In-house metabolic stability study (rat liver microsome); assay type: in vitro ADME; conditions: liver microsomes, read-out: in vitro intrinsic clearance
[5] = rat plasma, nominal QC 15 ng/mL
[6] = rat plasma, nominal QC 165 ng/mL
[7] = rat plasma, nominal QC 1820 ng/mL
[8] = male, Sprague-Dawley, plasma, rat, IV 1 mg/kg
[9] = male, Sprague-Dawley, plasma, rat, IV 2 mg/kg
[10] = male, Sprague-Dawley, plasma, rat, PO 2 mg/kg
[11] = male, Sprague-Dawley, plasma, rat, PO 5 mg/kg

Cc1cc(Cn2nnc3c(-c4ccco4)nc(N)nc32)ccc1N [vipadenant, Vipadenant]
Mean Accuracy (%), stock storage stability ([1]; nominal QC 165 ng/mL): 102.5%
Mean Accuracy (%), stock storage stability ([1]; nominal QC 1820 ng/mL): 95.6%
time stock solution showed stability ([1]; stock solution prepared in DMSO): 6 months
time processed samples stable ([2]; auto-sampler storage condition (10 °C)): at least 24 h
Mean Accuracy (%), post-preparative stability ([2]; nominal QC 15 ng/mL): 114.8%
Mean Accuracy (%), post-preparative stability ([2]; nominal QC 165 ng/mL): 99.2%
Mean Accuracy (%), post-preparative stability ([2]; nominal QC 1820 ng/mL): 94.9%
Mean Accuracy (%), long-term stability [2, 5]: 111.8%
Mean Accuracy (%), long-term stability [2, 6]: 104.1%
Mean Accuracy (%), long-term stability [2, 7]: 103.7%
Mean Accuracy (%), freeze-thaw stability [2, 5]: 118.8%
Mean Accuracy (%), freeze-thaw stability [2, 6]: 88.5%
Mean Accuracy (%), freeze-thaw stability [2, 7]: 91.1%
Mean Accuracy (%), short term stability [2, 5]: 97.8%
Mean Accuracy (%), short term stability [2, 6]: 90.5%
Mean Accuracy (%), short term stability [2, 7]: 92.6%
freeze-thaw stability (in words) ([2]; rat plasma, three cycles of freeze-thawing (RT vs. −80 °C)): stable
time stable, long-term stability test ([2]; rat plasma, −80 °C storage): at least 2 weeks
time stable in rat plasma QC sample ([2]; room temperature): at least 4 h
AUC(0-t) [3, 8]: 451 ng·h/mL
Tmax [3, 8]: 2.6 min
clearance [3, 8]: 37.8 ± 7.2 mL/min/kg
half-life [3, 8]: 48 ± 5.8 min
Cmax [3, 8]: 2210 ± 1160 ng/mL
Vd [3, 8]: 1.08 ± 0.223 L/kg
AUC(0-t) [3, 9]: 1510 ng·h/mL
Tmax [3, 9]: 2 min
clearance [3, 9]: 22.5 ± 4.3 mL/min/kg
half-life [3, 9]: 71.2 ± 8.5 min
Cmax [3, 9]: 3090 ± 222 ng/mL
Vd [3, 9]: 1.21 ± 0.174 L/kg
AUC(0-t) [3, 10]: 279 ng·h/mL
Tmax [3, 10]: 7.5 min
half-life [3, 10]: 65.2 ± 20.2 min
Cmax [3, 10]: 230 ± 88 ng/mL
AUC(0-t) [3, 11]: 887 ng·h/mL
Tmax [3, 11]: 30 min
half-life [3, 11]: 116 ± 59 min
Cmax [3, 11]: 296 ± 87.3 ng/mL
bioavailability ([3]; male, Sprague-Dawley, plasma, rat, PO 2 and 5 mg/kg vs IV 1 and 2 mg/kg, read-out: BA (average bioavailability)): 30.4 ± 8.9%
clearance (in words) ([3]; rat IV study): low to moderate clearance
CLint scaled [4]: 20 mL/min/kg
